Measured values as given in PMC5881471, “CDK2 inhibitors as candidate therapeutics for cisplatin- and noise-induced hearing loss” (The Journal of Experimental Medicine, 2018).

Tested on: not listed separately
Assay: in vitro
Set-up: CellTiter-Glo cell viability, compound alone
Settings: mouse, hei-oc1 cells; compound alone; read-out: LD50 (μM) in HEI cells
Source text: For this screen, caspase-3 cleavage was chosen as the endpoint indicating cisplatin-induced cell death, as it allowed the inhibition of cell death to be monitored at the level of any intracellular molecular target upstream of caspase-3 cleavage in the HEI-OC1 cell line ([Kalinec et al., 2003]; [Kim et al., 2010]). […] This screen has been described in detail elsewhere ([Teitz et al., 2016]). Assays were first optimized at the bench. Optimized aspects included the number of cells to be plated (1,600 cells/well), the cisplatin concentration (50 µM, based on the dose–response curve), the incubation time (22 h at 33°C in 10% CO2), and the concentration of pifithrin-α (17 µM). The Caspase-Glo 3/7 assay (Promega), which enables the measurement of light emitted as the result of caspase cleavage and is suitable for HTS, was used. The linearity of the Caspase-Glo 3/7 assay was validated, and it was verified that 0.5% DMSO had no effect on the cell death kinetics ([Hall et al., 2014]). Compound toxicity was tested by cell viability assay CellTiter-Glo (Promega) with compound alone. The Caspase-Glo 3/7 assay was then tested for reproducibility in the St. Jude robotic systems in 384-well plates (white, solid-bottom, tissue culture–treated, polystyrene plates; Corning). By using a pin tool, test compounds dissolved in DMSO were added to the screen to a final concentration of 8 µM, and cisplatin solution in PBS was added 2 min later to each well to a final concentration of 50 µM (in <0.5% DMSO; Fig. S1 A). The cells were incubated with the test compounds and cisplatin for 22 h at 33°C in 10% CO2, with the medium being as previously described ([Kalinec et al., 2003]); no γ IFN was added to slow the cells’ growth rate and to mimic as closely as possible the conditions of postmitotic, nondividing sensory epithelial (organ of Corti) cells. The 384-well plates were shaken and centrifuged after compound addition to enhance the reprod  Figure 1. […] (A) Screening of a bioactive compound library of 4,385 unique compounds, including 845 FDA-approved drugs, in HEI-OC1 cells. Cells treated with 50 µM cisplatin (red dots) were assigned 100% caspase-3/7 activity. Cells not treated with cisplatin, i.e., those grown in medium only (black dots) were assigned 0% caspase-3/7 activity. Each compound was added to a final concentration of 8 µM in the presence of 50 µM cisplatin (cyan dots). The cell-based screen mean Z′ was 0.75, the signal window was 12, and the signal fold change was 4.9. […] The caspase-3/7 IC50 activity and structure are indicated for each compound. Error bars: SEM. […] Phalloidin labels the HCs. (I–K) OHC survival (percentage; mean ± SEM) after treatment with various concentrations of compounds and/or cisplatin (CIS). The number of cochlear explants analyzed is indicated in each bar. *, P < 0.05 and **, P < 0.01 by one-way ANOVA followed by a Bonferroni comparison. We identified 177 hits that reduced cisplatin-induced caspase-3/7 activity by 60% or more. These compounds were further validated and characterized by dose-responsive analysis for potency and toxicity in HEI-OC1 cells; toxicity was assessed by a cell viability assay (CellTiter-Glo) with the test compounds alone (Fig. 1, B–D; and Fig. S1, E–K). The top 10 hits in this screen (with IC50 values in the HEI-OC1 cells of 0.04–6.2 µM) and their protective properties, as investigated in this study, are summarized in Table S1. The FDA has approved three of the compounds (leflunomide, [compound left out], and olsalazine sodium) for treating other medical conditions.

Structure (SMILES) | CC50 at 22 h [µM]
NS(=O)(=O)c1ccc(N=Nc2c(O)[nH]c3ccc(Br)cc23)cc1 [CDK2 inhibitor II] | > 40
CCCCCC[C@H]1C(=O)O[C@H](C)[C@H](NC(=O)c2cccc(NC=O)c2O)C(=O)O[C@@H](C)[C@@H]1OC(=O)CC(C)C [Antimycin A] | > 10
O=C(O)c1cc(/N=N/c2ccc(O)c(C(=O)O)c2)ccc1O [Olsalazine sodium] | > 40
O=C1Cc2c([nH]c3ccc(Br)cc23)-c2ccccc2N1 [kenpaullone] | > 40
O=c1cc(CN2CCOCC2)occ1OCCCCCSc1ccnc2cc(C(F)(F)F)ccc12 [EHT1864] | > 20
CC[C@H](CO)Nc1nc(NCc2ccccc2O)c2ncn(C(C)C)c2n1 [Olomoucine II] | > 40
CCOc1cc2ncc(C#N)c(Nc3ccc(F)c(Cl)c3)c2cc1NC(=O)/C=C/CN(C)C [Pelitinib] | > 40
Cc1oncc1C(=O)Nc1ccc(C(F)(F)F)cc1 [Leflunomide] | > 40

Target: CDK2 (Mus musculus, UniProt P97377)
Assay: immunoprecipitated CDK2 kinase assay, […]histone H1 substrate; cisplatin-treated cells ([…] from untreated cells)
Format: biochemical
Settings: not given

IC50 [µM] | Structure (SMILES)
1.7 ± 0.9 | O=C1Cc2c([nH]c3ccc(Br)cc23)-c2ccccc2N1 [kenpaullone]
